Measurements published in US20250144094A1 (Erasca, Inc., priority 2021, published 2025).

target: Recombinant human ULK1 (1-649) (Homo sapiens (Human), UniProt O75385); assay: ULK1 ADP Glo kinase activity assay, new method (ULKtide peptide substrate); conditions: 25° C., 40 minutes, read-out: ULK1 biochemical IC50
Description: Recombinant human ULK1 (1-649) protein expressed in Sf9 insect cells was obtained from SignalChem (Vancouver, BC), catalog #U01-11G. Active kinase was purified via N-terminal GST tag to >85% purity.
ADP GLO Kinase Assay Reagents were obtained from Promega Corp (Madison, WI), catalog #V9104.
Synthetic peptide substrate (ULKtide) with the amino acid sequence YANWLAASIYLDGKKK was obtained from ThermoFisher Scientific USA.
ULK1 inhibitor potency was determined using the luminescent ADP Glo Kinase Assay (Promega), a universal ADP detection system that measures kinase activity by quantifying the amount of ADP produced during a kinase reaction. ULK1 kinase reactions are performed in a standard 96-well microplate (20 μL reaction volume) at 25° C. for 40 minutes in the presence or absence of the test compound (12-point dilution series starting at 10 μM). Addition of peptide substrate and ATP initiates the kinase reaction.
The standard ADP Glo assay is performed in two steps. In step one, following the kinase reaction, an equal volume of ADP-Glo™ Reagent (20 μL) is added to terminate the kinase reaction and deplete the remaining ATP. In the second step, the Kinase Detection Reagent (10 μL) is added to simultaneously convert ADP to ATP and allow the newly synthesized ATP to be measured using a luciferase/luciferin reaction. Step two of the ADP Glo assay is performed in a white 384-well plate (20 μL final volume). Thirty minutes after the addition of the Detection reagent, light generated from the luciferase reaction is measured (1 second exposure) using a microplate compatible luminometer (CLARIOstar, BMG Labtech).
Inhibition of ULK1 kinase activity is determined for each test compound by comparison to DMSO only control wells. Inhibitor IC50 was calculated by plotting the change in luminescence after 30 minutes (response) versus inhibitor concentration (in log molar) then applying the four-parameter variable slope curve fit (GraphPad Prism). Inhibition of ULK1 in biochemical assay is found in Table 4.

Chain of Recombinant human ULK1 (1-649) (O75385 1-649): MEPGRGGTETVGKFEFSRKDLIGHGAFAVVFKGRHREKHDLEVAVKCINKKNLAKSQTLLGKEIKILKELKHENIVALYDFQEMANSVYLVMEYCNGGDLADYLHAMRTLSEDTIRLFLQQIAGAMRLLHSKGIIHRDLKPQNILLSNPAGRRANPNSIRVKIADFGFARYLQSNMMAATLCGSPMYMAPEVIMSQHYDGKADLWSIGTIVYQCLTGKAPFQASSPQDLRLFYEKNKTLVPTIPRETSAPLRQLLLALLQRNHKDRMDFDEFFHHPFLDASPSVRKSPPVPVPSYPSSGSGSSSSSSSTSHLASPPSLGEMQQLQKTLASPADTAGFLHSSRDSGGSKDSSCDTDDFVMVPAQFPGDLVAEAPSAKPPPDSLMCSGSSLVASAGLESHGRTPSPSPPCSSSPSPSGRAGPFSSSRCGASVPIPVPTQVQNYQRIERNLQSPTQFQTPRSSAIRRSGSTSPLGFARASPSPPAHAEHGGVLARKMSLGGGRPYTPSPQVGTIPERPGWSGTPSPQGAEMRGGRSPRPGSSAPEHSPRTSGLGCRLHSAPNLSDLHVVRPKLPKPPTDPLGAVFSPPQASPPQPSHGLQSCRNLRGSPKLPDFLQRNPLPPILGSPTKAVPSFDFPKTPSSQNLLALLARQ

Compared with “4-cyclopropyl-7-(2-((4-(1-(2,2-difluoroethyl)piperidin-4-yl)-2-ethylphenyl)amino)-5-(trifluoromethyl)pyrimidin-4-yl)-3,4-dihydrothieno[2,3-f][1,4]thiazepin-5(2H)-one 1,1-dioxide [Example 281]”, `Cc1ccc(C2CNC2)cc1Nc1ncc(C(F)(F)F)c(-c2cc(S(C)(=O)=O)cs2)n1` [Example 136, N-(5-(azetidin-3-yl)-2-methylphenyl)-4-(4-(methylsulfonyl)thiophen-2-yl)-5-(trifluoromethyl)pyrimidin-2-amine] is higher in IC50: 5 to 10 nM for the first, 50 to 100 nM for the second. The first is the more potent here.

Going from `Cc1ccc(C2CN(C)C2)cc1Nc1ncc(C(F)(F)F)c(-c2cc(S(C)(=O)=O)cs2)n1` [Example 137, N-(2-Methyl-5-(1-methylazetidin-3-yl)phenyl)-4-(4-(methylsulfonyl)thiophen-2-yl)-5-(trifluoromethyl)pyrimidin-2-amine] to `CCc1cc2c(cc1Nc1ncc(C(F)(F)F)c(-c3cc4c(s3)C(=O)NCCS4(=O)=O)n1)CCNC2` [Example 138, 7-(2-((7-ethyl-1,2,3,4-tetrahydroisoquinolin-6-yl)amino)-5-(trifluoromethyl)pyrimidin-4-yl)-3,4-dihydrothieno[2,3-f][1,4]thiazepin-5(2H)-one 1,1-dioxide], the IC50 falls from greater than 100 nM to no more than 5 nM.

`CN1CCc2cc(Nc3ncc(C(F)(F)F)c(-c4cc5c(s4)C(=O)NCCS5(=O)=O)n3)c(F)cc2C1` [Example 139, 7-(2-((7-fluoro-2-methyl-1,2,3,4-tetrahydroisoquinolin-6-yl)amino)-5-(trifluoromethyl)pyrimidin-4-yl)-3,4-dihydrothieno[2,3-f][1,4]thiazepin-5(2H)-one 1,1-dioxide] and `CN1CCc2cc(Nc3ncc(C(F)(F)F)c(-c4cc5c(s4)C(=O)N(C)CCS5(=O)=O)n3)c(F)cc2C1` [Example 140, 7-(2-((7-fluoro-2-methyl-1,2,3,4-tetrahydroisoquinolin-6-yl)amino)-5-(trifluoromethyl)pyrimidin-4-yl)-4-methyl-3,4-dihydrothieno[2,3-f][1,4]thiazepin-5(2H)-one 1,1-dioxide] cannot be ordered by IC50: no more than 5 nM for the first, no more than 5 nM for the second.

`CN1CCS(=O)(=O)c2cc(-c3nc(Nc4cn(C5CCNCC5)nc4C4CC4)ncc3C(F)(F)F)sc2C1=O` [Example 141, 7-(2-((3-cyclopropyl-1-(piperidin-4-yl)-1H-pyrazol-4-yl)amino)-5-(trifluoromethyl)pyrimidin-4-yl)-4-methyl-3,4-dihydrothieno[2,3-f][1,4]thiazepin-5(2H)-one 1,1-dioxide] and `CCN1CCS(=O)(=O)c2cc(-c3nc(Nc4cc5c(cc4Cl)CN(C)CC5)ncc3C(F)(F)F)sc2C1=O` [Example 142, 7-(2-((7-chloro-2-methyl-1,2,3,4-tetrahydroisoquinolin-6-yl)amino)-5-(trifluoromethyl)pyrimidin-4-yl)-4-ethyl-3,4-dihydrothieno[2,3-f][1,4]thiazepin-5(2H)-one 1,1-dioxide] cannot be ordered by IC50: no more than 5 nM for the first, no more than 5 nM for the second.

`O=C1c2sc(-c3nc(Nc4cc5c(cc4Cl)CNCC5)ncc3C(F)(F)F)cc2S(=O)(=O)CCN1CC(F)(F)F` [Example 143, 7-(2-((7-chloro-1,2,3,4-tetrahydroisoquinolin-6-yl)amino)-5-(trifluoromethyl)pyrimidin-4-yl)-4-(2,2,2-trifluoroethyl)-3,4-dihydrothieno[2,3-f][1,4]thiazepin-5(2H)-one 1,1-dioxide] and `CN1CCc2cc(Nc3ncc(C(F)(F)F)c(-c4cc5c(s4)C(=O)N(CC(F)(F)F)CCS5(=O)=O)n3)c(Cl)cc2C1` [Example 144, 7-(2-((7-chloro-2-methyl-1,2,3,4-tetrahydroisoquinolin-6-yl)amino)-5-(trifluoromethyl)pyrimidin-4-yl)-4-(2,2,2-trifluoroethyl)-3,4-dihydrothieno[2,3-f][1,4]thiazepin-5(2H)-one 1,1-dioxide] cannot be ordered by IC50: no more than 5 nM for the first, no more than 5 nM for the second.

`CN1CC(n2cc(Nc3ncc(C(F)(F)F)c(-c4cc(S(C)(=O)=O)cs4)n3)c(C3CC3)n2)C1` [Example 145, N-(3-cyclopropyl-1-(1-methylazetidin-3-yl)-1H-pyrazol-4-yl)-4-(4-(methylsulfonyl)thiophen-2-yl)-5-(trifluoromethyl)pyrimidin-2-amine] and `CCc1cc2c(cc1Nc1ncc(C(F)(F)F)c(-c3cc4c(s3)C(=O)NCCS4(=O)=O)n1)CCN(C)C2` [Example 146, 7-(2-((7-ethyl-2-methyl-1,2,3,4-tetrahydroisoquinolin-6-yl)amino)-5-(trifluoromethyl)pyrimidin-4-yl)-3,4-dihydrothieno[2,3-f][1,4]thiazepin-5(2H)-one 1,1-dioxide] cannot be ordered by IC50: 5 to 10 nM for the first, no more than 5 nM for the second.

`CCc1cc2c(cc1Nc1ncc(C(F)(F)F)c(-c3cc4c(s3)C(=O)N(C)CCS4(=O)=O)n1)CCNC2` [Example 147, 7-(2-((7-ethyl-1,2,3,4-tetrahydroisoquinolin-6-yl)amino)-5-(trifluoromethyl)pyrimidin-4-yl)-4-methyl-3,4-dihydrothieno[2,3-f][1,4]thiazepin-5(2H)-one 1,1-dioxide] and `CCc1cc2c(cc1Nc1ncc(C(F)(F)F)c(-c3cc4c(s3)C(=O)N(C)CCS4(=O)=O)n1)CCN(C)C2` [Example 148, 7-(2-((7-ethyl-2-methyl-1,2,3,4-tetrahydroisoquinolin-6-yl)amino)-5-(trifluoromethyl)pyrimidin-4-yl)-4-methyl-3,4-dihydrothieno[2,3-f][1,4]thiazepin-5(2H)-one 1,1-dioxide] cannot be ordered by IC50: no more than 5 nM for the first, no more than 5 nM for the second.

`CN1CCS(=O)(=O)c2cc(-c3nc(Nc4cc(C5CCNCC5)ccc4Cl)ncc3C(F)(F)F)sc2C1=O` [Example 149, 7-(2-((2-chloro-5-(piperidin-4-yl)phenyl)amino)-5-(trifluoromethyl)pyrimidin-4-yl)-4-methyl-3,4-dihydrothieno[2,3-f][1,4]thiazepin-5(2H)-one 1,1-dioxide] and `CN1CCC(c2ccc(Cl)c(Nc3ncc(C(F)(F)F)c(-c4cc5c(s4)C(=O)N(C)CCS5(=O)=O)n3)c2)CC1` [Example 150, 7-(2-((2-chloro-5-(1-methylpiperidin-4-yl)phenyl)amino)-5-(trifluoromethyl)pyrimidin-4-yl)-4-methyl-3,4-dihydrothieno[2,3-f][1,4]thiazepin-5(2H)-one 1,1-dioxide] fall in the same range of IC50: 10 to 50 nM for the first, 10 to 50 nM for the second.

`O=C1NCCS(=O)(=O)c2cc(-c3nc(Nc4cn(C5CCNCC5)nc4C4CC4)ncc3C(F)(F)F)sc21` [Example 151, 7-(2-((3-cyclopropyl-1-(piperidin-4-yl)-1H-pyrazol-4-yl)amino)-5-(trifluoromethyl)pyrimidin-4-yl)-3,4-dihydrothieno[2,3-f][1,4]thiazepin-5(2H)-one 1,1-dioxide] and `CN1CCC(n2cc(Nc3ncc(C(F)(F)F)c(-c4cc5c(s4)C(=O)NCCS5(=O)=O)n3)c(C3CC3)n2)CC1` [Example 152, 7-(2-((3-cyclopropyl-1-(1-methylpiperidin-4-yl)-1H-pyrazol-4-yl)amino)-5-(trifluoromethyl)pyrimidin-4-yl)-3,4-dihydrothieno[2,3-f][1,4]thiazepin-5(2H)-one 1,1-dioxide] cannot be ordered by IC50: no more than 5 nM for the first, no more than 5 nM for the second.

`CN1CCc2cc(Nc3ncc(C(F)(F)F)c(-c4cc5c(s4)C(=O)N(CC4CC4)CCS5(=O)=O)n3)c(Cl)cc2C1` [Example 154, 7-(2-((7-chloro-2-methyl-1,2,3,4-tetrahydroisoquinolin-6-yl)amino)-5-(trifluoromethyl)pyrimidin-4-yl)-4-(cyclopropylmethyl)-3,4-dihydrothieno[2,3-f][1,4]thiazepin-5(2H)-one 1,1-dioxide] and `O=C1c2sc(-c3nc(Nc4cc5c(cc4Cl)CNCC5)ncc3C(F)(F)F)cc2S(=O)(=O)CCN1C1CC1` [Example 155, 7-(2-((7-chloro-1,2,3,4-tetrahydroisoquinolin-6-yl)amino)-5-(trifluoromethyl)pyrimidin-4-yl)-4-cyclopropyl-3,4-dihydrothieno[2,3-f][1,4]thiazepin-5(2H)-one 1,1-dioxide] cannot be ordered by IC50: no more than 5 nM for the first, no more than 5 nM for the second.

`CN1CCS(=O)(=O)c2cc(-c3nc(Nc4cc5c(cc4Cl)CNCC5)ncc3C(F)(F)F)sc2C1=O` [Example 156, 7-(2-((7-chloro-1,2,3,4-tetrahydroisoquinolin-6-yl)amino)-5-(trifluoromethyl)pyrimidin-4-yl)-4-methyl-3,4-dihydrothieno[2,3-f][1,4]thiazepin-5(2H)-one 1,1-dioxide] and `CN1CCS(=O)(=O)c2cc(-c3nc(Nc4cc5c(cc4F)CNC5)ncc3C(F)(F)F)sc2C1=O` [Example 157, 7-(2-((6-fluoroisoindolin-5-yl)amino)-5-(trifluoromethyl)pyrimidin-4-yl)-4-methyl-3,4-dihydrothieno[2,3-f][1,4]thiazepin-5(2H)-one 1,1-dioxide] cannot be ordered by IC50: no more than 5 nM for the first, no more than 5 nM for the second.

`O=C1c2sc(-c3nc(Nc4cc5c(cc4Cl)CNCC5)ncc3C(F)(F)F)cc2S(=O)(=O)CCN1C1CCC1` [Example 158, 7-(2-((7-chloro-1,2,3,4-tetrahydroisoquinolin-6-yl)amino)-5-(trifluoromethyl)pyrimidin-4-yl)-4-cyclobutyl-3,4-dihydrothieno[2,3-f][1,4]thiazepin-5(2H)-one 1,1-dioxide] showed an IC50 of no more than 5 nM.
